Test results: BigSolDB 2.1

Cc1ccc(-c2ccccc2C#N)cc1
solubility (mole fraction)
Conditions | 268.05 K | 272.97 K | 278.05 K | 283.15 K | 288.15 K | 293.15 K | 298.13 K | 303.05 K
in ethanol | 0.0142 | 0.0159 | 0.0168 | 0.0205 | 0.0284 | 0.041 | 0.0604 | 0.0958
in ethyl acetate | 0.163 | 0.196 | 0.237 | 0.284 | 0.341 | 0.412 | 0.482 | 0.569
